# Reference: patent US6376497B1, “Antifungal azole derivatives having a fluorinated vinyl group and process for preparing same” (Korea Research Institute of Chemical Technology, priority 1999, dated 2002)
# Assays:
# Assay in all cases: In vitro antifungal activity, microbroth dilution MIC
# Format in all cases: cell-based
# [1] = system: Candida krusei K. 11655; settings: 4 to 48 hours; for Minimal inhibitory concentration (MIC): C. krusei K. 11655, RPMI-1640, 35° C.; for Minimal inhibitory concentration(MIC), C. krusei K. 11655: RPMI-1640, 35° C., no growth observed
# Outline: (§1)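 Broth microdilution adapted from NCCLS M27, in RPMI-1640 with 0.165 M MOPS, pH 7.0. Yeast or mould inoculum at 2×10^3 CFU/ml was mixed 1:1 with DMSO-derived compound solutions (200 to 0.10 μg/ml before mixing) and incubated at 35 °C for 4 to 48 h. MIC was the concentration showing no growth.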
# [2] = system: Trichophyton mentagrophytes B. 32663; settings: 4 to 48 hours; for Minimal inhibitory concentration (MIC): T. mentagrophytes B. 32663, RPMI-1640, 35° C.; for Minimal inhibitory concentration(MIC), T. mentagrophytes B. 32663: RPMI-1640, 35° C., no growth observed
# Outline: as §1
# [3] = system: Trichophyton mentagrophytes A. 9129; settings: 4 to 48 hours; for Minimal inhibitory concentration (MIC): T. mentagrophytes A. 9129, RPMI-1640, 35° C.; for Minimal inhibitory concentration(MIC), T. mentagrophytes A. 9129: RPMI-1640, 35° C., no growth observed
# Outline: as §1
# [4] = system: Aspergillus niger A. 16404; settings: 4 to 48 hours; for Minimal inhibitory concentration (MIC): A. niger A. 16404, RPMI-1640, 35° C.; for Minimal inhibitory concentration(MIC), A. niger A. 16404: RPMI-1640, 35° C., no growth observed
# Outline: as §1
# [5] = system: Candida tropicalis A. 13803; settings: 4 to 48 hours; for Minimal inhibitory concentration (MIC): C. tropicalis A. 13803, RPMI-1640, 35° C.; for Minimal inhibitory concentration(MIC), C. tropicalis A. 13803: RPMI-1640, 35° C., no growth observed
# Outline: as §1
# [6] = system: Candida pseudotropicalis K. 11658; settings: 4 to 48 hours; for Minimal inhibitory concentration (MIC): C. pseudotropicalis K. 11658, RPMI-1640, 35° C.; for Minimal inhibitory concentration(MIC), C. pseudotropicalis K. 11658: RPMI-1640, 35° C., no growth observed
# Outline: as §1
# [7] = system: Candida albicans C1-2; settings: 4 to 48 hours; for Minimal inhibitory concentration (MIC): C. albicans C1-2, RPMI-1640, 35° C.; for Minimal inhibitory concentration(MIC), C. albicans C1-2: RPMI-1640, 35° C., no growth observed
# Outline: as §1
# [8] = system: Candida parapsitosis A. 7330; settings: 4 to 48 hours; for Minimal inhibitory concentration (MIC): C. parapsitosis A. 7330, RPMI-1640, 35° C.; for Minimal inhibitory concentration(MIC), C. parapsitosis A. 7330: RPMI-1640, 35° C., no growth observed
# Outline: as §1
# [9] = system: Aspergillus furnigatus B. 19119; settings: 4 to 48 hours; for Minimal inhibitory concentration (MIC): A furnigatus B. 19119, RPMI-1640, 35° C.; for Minimal inhibitory concentration(MIC), A furnigatus B. 19119: RPMI-1640, 35° C., no growth observed
# Outline: as §1
# [10] = system: Cryptococcus neoformans B. 42419; settings: 4 to 48 hours; for Minimal inhibitory concentration (MIC): Cry. neoformans B. 42419, RPMI-1640, 35° C.; for Minimal inhibitory concentration(MIC), Cry. neoformans B. 42419: RPMI-1640, 35° C., no growth observed
# Outline: as §1
# [11] = system: Torulopsis glabrata B. 16205; settings: 4 to 48 hours; for Minimal inhibitory concentration (MIC): T. glabrata B. 16205, RPMI-1640, 35° C.; for Minimal inhibitory concentration(MIC), T. glabrata B. 16205: RPMI-1640, 35° C., no growth observed
# Outline: as §1
# [12] = system: Candida albicans A. 10231; settings: 4 to 48 hours; for Minimal inhibitory concentration (MIC): C. albicans A. 10231, RPMI-1640, 35° C.; for Minimal inhibitory concentration(MIC), C. albicans A. 10231: RPMI-1640, 35° C., no growth observed
# Outline: as §1
# [13] = system: Cryptococcus neoformans A. 34144; settings: 4 to 48 hours; for Minimal inhibitory concentration (MIC): Cry. neoformans A. 34144, RPMI-1640, 35° C.; for Minimal inhibitory concentration(MIC), Cry. neoformans A. 34144: RPMI-1640, 35° C., no growth observed
# Outline: as §1
# [14] = system: Cryptococcus neoformans IFM. 40092; settings: 4 to 48 hours; for Minimal inhibitory concentration (MIC): Cry. neoformans IFM. 40092, RPMI-1640, 35° C.; for Minimal inhibitory concentration(MIC), Cry. neoformans IFM. 40092: RPMI-1640, 35° C., no growth observed
# Outline: as §1
# [15] = system: Candida albicans IFO. 1385; settings: 4 to 48 hours; for Minimal inhibitory concentration (MIC): C. albicans IFO. 1385, RPMI-1640, 35° C.; for Minimal inhibitory concentration(MIC), C. albicans IFO. 1385: RPMI-1640, 35° C., no growth observed
# Outline: as §1
Compound,Minimal inhibitory concentration (MIC) [1] [µg/mL],Minimal inhibitory concentration (MIC) [2] [µg/mL],Minimal inhibitory concentration (MIC) [3] [µg/mL],Minimal inhibitory concentration (MIC) [4] [µg/mL],Minimal inhibitory concentration (MIC) [5] [µg/mL],"Minimal inhibitory concentration(MIC), C. krusei K. 11655 [1] [µg/mL]","Minimal inhibitory concentration(MIC), T. mentagrophytes B. 32663 [2] [µg/mL]","Minimal inhibitory concentration(MIC), T. mentagrophytes A. 9129 [3] [µg/mL]","Minimal inhibitory concentration(MIC), A. niger A. 16404 [4] [µg/mL]","Minimal inhibitory concentration(MIC), C. tropicalis A. 13803 [5] [µg/mL]","Minimal inhibitory concentration(MIC), C. pseudotropicalis K. 11658 [6] [µg/mL]","Minimal inhibitory concentration(MIC), C. albicans C1-2 [7] [µg/mL]","Minimal inhibitory concentration(MIC), C. parapsitosis A. 7330 [8] [µg/mL]","Minimal inhibitory concentration(MIC), A furnigatus B. 19119 [9] [µg/mL]","Minimal inhibitory concentration(MIC), Cry. neoformans B. 42419 [10] [µg/mL]","Minimal inhibitory concentration(MIC), T. glabrata B. 16205 [11] [µg/mL]","Minimal inhibitory concentration(MIC), C. albicans A. 10231 [12] [µg/mL]","Minimal inhibitory concentration(MIC), Cry. neoformans A. 34144 [13] [µg/mL]","Minimal inhibitory concentration(MIC), Cry. neoformans IFM. 40092 [14] [µg/mL]","Minimal inhibitory concentration(MIC), C. albicans IFO. 1385 [15] [µg/mL]",further results
FC(OCC1COC(Cn2ccnc2)(c2ccc(Cl)cc2Cl)O1)=C(c1cccc(Cl)c1)C(F)(F)F (stereo not drawn) [Ex. 30],>100,1.56,6.25,25.0,>100,,,,,,,,,,,,,,,,Minimal inhibitory concentration (MIC) [6]: >100 µg/mL; Minimal inhibitory concentration (MIC) [7]: 25.0 µg/mL; Minimal inhibitory concentration (MIC) [8]: >100 µg/mL; Minimal inhibitory concentration (MIC) [9]: 12.5 µg/mL; Minimal inhibitory concentration (MIC) [10]: 0.78 µg/mL; Minimal inhibitory concentration (MIC) [11]: 12.5 µg/mL; Minimal inhibitory concentration (MIC) [12]: 25.0 µg/mL; Minimal inhibitory concentration (MIC) [13]: 0.78 µg/mL; Minimal inhibitory concentration (MIC) [14]: 0.20 µg/mL; Minimal inhibitory concentration (MIC) [15]: 1.56 µg/mL
Cc1ccc(C(=C(F)OCC2COC(Cn3cncn3)(c3ccc(Cl)cc3Cl)O2)C(F)(F)F)cc1 (mixture of isomers) [Ex. 81],,,,,,>100,100,100,>100,>100,50.0,>100,>100,>100,1.56,>100,>100,0.78,0.39,12.5,
FC(OCC1COC(Cn2ccnc2)(c2ccc(Cl)cc2Cl)O1)=C(c1ccc(C(F)(F)F)cc1)C(F)(F)F (stereo not drawn) [Ex. 25],100,12.5,25.0,100,50.0,,,,,,,,,,,,,,,,Minimal inhibitory concentration (MIC) [6]: 100 µg/mL; Minimal inhibitory concentration (MIC) [7]: 12.5 µg/mL; Minimal inhibitory concentration (MIC) [8]: >100 µg/mL; Minimal inhibitory concentration (MIC) [9]: 100 µg/mL; Minimal inhibitory concentration (MIC) [10]: 1.56 µg/mL; Minimal inhibitory concentration (MIC) [11]: 25.0 µg/mL; Minimal inhibitory concentration (MIC) [12]: 6.25 µg/mL; Minimal inhibitory concentration (MIC) [13]: 1.56 µg/mL; Minimal inhibitory concentration (MIC) [14]: 0.78 µg/mL; Minimal inhibitory concentration (MIC) [15]: 1.56 µg/mL

# Second part, led by results:
Minimal inhibitory concentration (MIC) [1] [µg/mL],Minimal inhibitory concentration (MIC) [2] [µg/mL],Minimal inhibitory concentration (MIC) [3] [µg/mL],Minimal inhibitory concentration (MIC) [4] [µg/mL],Minimal inhibitory concentration (MIC) [5] [µg/mL],"Minimal inhibitory concentration(MIC), C. krusei K. 11655 [1] [µg/mL]","Minimal inhibitory concentration(MIC), T. mentagrophytes B. 32663 [2] [µg/mL]","Minimal inhibitory concentration(MIC), T. mentagrophytes A. 9129 [3] [µg/mL]","Minimal inhibitory concentration(MIC), A. niger A. 16404 [4] [µg/mL]","Minimal inhibitory concentration(MIC), C. tropicalis A. 13803 [5] [µg/mL]","Minimal inhibitory concentration(MIC), C. pseudotropicalis K. 11658 [6] [µg/mL]","Minimal inhibitory concentration(MIC), C. albicans C1-2 [7] [µg/mL]","Minimal inhibitory concentration(MIC), C. parapsitosis A. 7330 [8] [µg/mL]","Minimal inhibitory concentration(MIC), A furnigatus B. 19119 [9] [µg/mL]","Minimal inhibitory concentration(MIC), Cry. neoformans B. 42419 [10] [µg/mL]","Minimal inhibitory concentration(MIC), T. glabrata B. 16205 [11] [µg/mL]","Minimal inhibitory concentration(MIC), C. albicans A. 10231 [12] [µg/mL]","Minimal inhibitory concentration(MIC), Cry. neoformans A. 34144 [13] [µg/mL]","Minimal inhibitory concentration(MIC), Cry. neoformans IFM. 40092 [14] [µg/mL]","Minimal inhibitory concentration(MIC), C. albicans IFO. 1385 [15] [µg/mL]",Compound,further results
,,,,,>100,>100,>100,>100,>100,>100,100,>100,>100,1.56,>100,100,1.56,0.78,12.5,FC(OCC1COC(Cn2cncn2)(c2ccc(Cl)cc2Cl)O1)=C(c1ccc(Cl)cc1)C(F)(F)F (mixture of isomers) [Ex. 86],
,,,,,1.56,1.56,6.25,>100,>100,1.56,>100,3.13,>100,0.78,>100,>100,0.39,0.20,1.56,FC(=C(c1ccc(Cl)cc1)C(F)(F)F)N1CCN(c2ccc(OCC3COC(Cn4ccnc4)(c4ccc(Cl)cc4Cl)O3)cc2)CC1 (mixture of isomers) [Ex. 134],
,,,,,>100,3.13,6.25,>100,>100,>100,25.0,>100,>100,1.56,50.0,50.0,1.56,0.39,1.56,FC(Oc1ccc(OCC2COC(Cn3cncn3)(c3ccc(Cl)cc3Cl)O2)cc1)=C(c1ccccc1)C(F)(F)F (mixture of isomers) [Ex. 119],
